From ChEMBL document CHEMBL3507680, “University of Dundee, Gates Library screen for HepG2 cell viability”

Experiment: Human HepG2 cell viability assay in 384 well format
Format: toxicity, cell-based
Design: dose 125 nL, time 70.5 hour; concentration not given beside the values
Details: HepG2 cells, read-out: Inhibition

Row | SMILES | cytotoxicity at 70.5 h [%]
1 | CN(C(=O)CCC(F)(F)F)c1cccc2ncccc12 | 42.6
2 | CCS(=O)(=O)CCCN1CCSCC1c1ccc(Cl)cc1 (stereo unspecified) | -13.2
3 | CC(=O)Nc1cccc2c1ccn2CC(=O)NC(C)C | -2.5
4 | O=C(CN1CSCC1=O)NCC1CCN(c2ccccc2)C1 (stereo unspecified) | -8.38
5 | COc1ccccc1OC1(C(=O)O)CCN(c2cc(C)nc(C)c2)CC1 | -0.575
6 | COc1cc(-c2n[nH]c(CCN)n2)cc(OC)c1OC | 22.8
7 | Cc1cc(OCC(=O)NS(=O)(=O)c2c(C)noc2C)ccc1Cl | -7.45
8 | COCCn1cncc1Cn1ncc2ccccc2c1=O | -4.19
9 | CC(=O)c1cccc(OCCCC(=O)N(C)Cc2cccc(O)c2)c1 | -6.39
10 | COc1ccc(-c2cccc(CC3(C(=O)O)CCOCC3)c2)cc1 | -4.34
11 | CC(C)c1nccn1C1CCCN(C(=O)c2cc(C3CC3)on2)C1 (stereo unspecified) | -3.7
12 | Cn1cccc1C1CCCN1Cc1noc(C(C)(C)C)n1 (stereo unspecified) | -21.2
13 | OCC(O)CSCc1cn(-c2ccc(Cl)cc2)nn1 (stereo unspecified) | 0.0879
14 | CC(Nc1nc(-c2ccccc2)nc2c1CCNCC2)c1nccs1 (stereo unspecified) | 2.31
15 | CSc1ccc(C(C(=O)O)N2CCC(CO)CC2)cc1 (stereo unspecified) | 25.1
16 | Cc1nc2sccn2c1CNC1(c2ccccc2F)CCCC1 | -8.91
17 | Cc1ccccc1C(=O)NC(C)c1cnn(C)c1 (stereo unspecified) | 27.8
18 | CCn1cc(NC(=O)C2CCN(CCOC(C)C)CC2)cn1 | -1.36
19 | COc1ccccc1S(=O)(=O)N1CCN(C)[C@@H]2CS(=O)(=O)C[C@@H]21 | 24.4

Row | SMILES | cytotoxicity at 70.5 h [%]
20 | OC(COc1ccccc1)CN1CCc2c(ncn2C2CC2)C1 (stereo unspecified) | -6.53
21 | CS(=O)(=O)N1Cc2ccccc2CC2(CCN(Cc3ccncc3)C2)C1 (stereo unspecified) | -9.23
22 | COC(=O)[C@@H]1C[C@H](NC(=O)c2cc(=O)[nH]c3ccc(C)cc23)CN1C | -13
23 | NC(=O)CSc1ccccc1NC(=O)C1CCCCC1 | 28.8
24 | CC(=O)N1CCC(C)(c2cc(C(=O)NCC(C)(C)C)nc(C)n2)CC1 | 9.62
25 | O=C(NCc1cccnc1)[C@H]1CC[C@@H]2[C@@H](CCN2c2ncccn2)O1 | -6.01
26 | O=C(CCN1CCOC(C(F)(F)F)C1)NCc1ccc(Cl)cc1 (stereo unspecified) | -0.312
27 | NCc1cn(-c2ccccc2C(=O)NCc2ccccc2)cn1 | -18.9
28 | COCCc1noc(CN2C(=O)OC[C@@H]2C(C)C)n1 | 2.12
29 | CCOCCC1(CNC(=O)c2ccsc2)CCC1 | -5.98
30 | O=C(C1=CCCC1)N1C[C@H]2CCC[C@@]2(COCc2ccncc2)C1 | 3.16
31 | O=C(Cc1ccco1)N1CCC2(CCOCC2COCC2CC2)CC1 (stereo unspecified) | -4.14
32 | O=C(c1cccnc1)N1C[C@@H]2OCCN(CCN3CCCC3)[C@@H]2C1 | -10
33 | Cc1csc(CNC(=O)NCc2ccc3c(c2)OCCO3)n1 | -14.3
34 | CCCn1ccnc1CN1CCc2[nH]cnc2C1Cc1ccccc1 (stereo unspecified) | -4.4
35 | O=C(O)c1cccnc1CN1CCOc2ccccc2C1 | -9.48
36 | COc1ccc2c(c1)CN(CC1CC1)C(=O)CCN2CC(C)(C)O | 0.185
37 | CN1CCOC(c2cncc(CCC(=O)N(C)C)n2)C1 (stereo unspecified) | -2.29
38 | CC(C)n1[nH]c(=O)c2c1NC(=O)CSC2c1ccc(OCC(N)=O)cc1 (stereo unspecified) | -11.1

Row | SMILES | cytotoxicity at 70.5 h [%]
39 | Cn1cc(CN2CCC3(CC2)CC(c2ccncc2)C(=O)N3)cn1 (stereo unspecified) | -10.1
40 | Cc1cc(C)n(C2CN(CC(O)c3ccc4c(c3)OCO4)C2)n1 (stereo unspecified) | -2.16
41 | COCCNCC1(O)CCCN(Cc2ccc(F)c(F)c2)C1=O (stereo unspecified) | -2.23
42 | CCc1ccc(CN2CCc3ncnc(N4CCOCC4)c3CC2)o1 | -1.4
43 | Nc1nc(O)cc(N2CCC(c3cc(Cc4ccccc4)n[nH]3)CC2)n1 | -3.99
44 | CNCC(=O)N[C@H]1CN(c2nc(C)c3c(n2)CCCC3)C[C@@H]1C1CC1 | -11.2
45 | CN(C(=O)CN1CCOC(Cn2cccn2)C1)c1nccs1 (stereo unspecified) | 9.89
46 | CSCCC(NC(=O)c1ccc2ccccc2n1)C(=O)NC(C)C (stereo unspecified) | -3.96
47 | COCC1CN(Cc2ccccn2)Cc2cn(C)nc21 (stereo unspecified) | -4.86
48 | Cc1cnc2c(S(=O)(=O)NCC3CCN(C4CC4)C3)cccc2c1 (stereo unspecified) | -5.3
49 | Cn1nc2c(cc1=O)CN(CCCOc1ccc(C#N)cc1)CC2 | -5.17
50 | CC(C)C(C)NC(=O)CN1CCSCC1 (stereo unspecified) | -2.11
51 | Cn1cc(CN2CCC3(CC2)NC(=O)CC3c2ccncc2)cn1 (stereo unspecified) | 12.2
52 | CC(C(=O)NCc1ccnc(N(C)C)c1)n1cccn1 (stereo unspecified) | -3.71
53 | CN(Cc1n[nH]c2c1CCC2)C(=O)c1cccc(CCC(C)(C)O)c1 | 1.92
54 | Fc1ccc(CN2CCC3(CC2)CCN(Cc2nccs2)CC3)cc1 | 1.45
55 | Cn1ccnc1CN(CCO)C(=O)c1cc2ccccc2o1 | 9.95
56 | CCc1nc(CN(C)Cc2ncc(-c3cccs3)o2)cs1 | -1.61
